The values that follow come from patent EP0089139A2, “Antibiotics, their preparation and use” (BEECHAM GROUP PLC, priority 1982, dated 1983).

Holding throughout (test): standard MIC test
Common to all, as to assay type: cell-based

One assay relates to Escherichia coli 0111. The source says: (§1) In a standard MIC test the following data were obtained.
Assay [1] has as its system Salmonella typhimurium CT10. Conditions: Salmonella enterica.
Text: as §1

Assay [2] has as its system Staphylococcus aureus Russell.
Text: as §1

A further assay relates to E.coli JT39. Conditions: Escherichia coli.
Text: as §1

The structures appear in SMILES notation. Converted amounts (≈) assume the structure as drawn. Like-named read-outs stand apart in the source and are kept apart here.

Take `C[C@H](O)[C@@H]1C(=O)N2C(C(=O)[O-])=C(Sc3ncccn3)[C@H](C)[C@@H]12.[Na+]` (racemic) [Example 16, Sodium (4RS,5RS,6RS)-4-methyl-6-[(1SR)-1-hydroxyethyl]-3-(pyrimidin-2-ylthio)-7-oxo-1-azabicyclo[3.2.0]hept-2-ene-2-carboxylate]: the MIC is 1.6 mg/L in the assay with Escherichia coli 0111, 1.6 mg/L in assay [1] (TYPHIMURIUM) and 0.4 mg/L in assay [2] (Staphylococcus aureus).

Consider `C[C@@H](O)[C@H]1C(=O)N2C(C(=O)O)=C(Sc3ncccn3)[C@H](C)[C@H]12` (racemic) [Example 40], for which the MIC in the assay on E.coli JT39 (E.coli JT39, read-out: M.I.C) worked out at 1.6 mg/L (≈ 4.98 µM); in assay [1] (Salmonella typhimurium CT10, read-out: MIC), 6.2 mg/L (≈ 19.3 µM); in assay [2] (Staphylococcus aureus Russell, read-out: MIC), 0.4 mg/L (≈ 1.24 µM).

Turning to `C[C@@H]1C(Sc2ncccn2)=C(C(=O)[O-])N2C(=O)[C@H]([C@@H](C)O)[C@@H]12.[Na+]` [Example 30, Sodium (4S,5S,6S)-4-methyl-6-[(1R)-1-hydroxyethyl]-3-(pyrimidin-2-ylthio)-7-oxo-1-azabicyclo [3.2.0] hept-2-ene-2-carboxylate], the MIC in the assay with E.coli JT39 (JT39) turned out to be 0.8 mg/L; in assay [1] (TYPHIMURIUM), 3.1 mg/L; in assay [2] (Staphylococcus aureus) it was 0.8 mg/L.
